Assay results: ChEMBL document CHEMBL4364353, “Lysophosphatidic Acid Receptor 1 Antagonists for the Treatment of Fibrosis” (ACS Med Chem Lett, 2019)

Biological target: Lysophosphatidic acid receptor 1 (Homo sapiens, UniProt Q92633)
Assay: Antagonist activity at human LPA1 expressed in CHO cells assessed as reduction in LPA-induced calcium influx incubated for 20 mins
Assay type: functional, cell-based

Sequence of Lysophosphatidic acid receptor 1 (Q92633 whole entry): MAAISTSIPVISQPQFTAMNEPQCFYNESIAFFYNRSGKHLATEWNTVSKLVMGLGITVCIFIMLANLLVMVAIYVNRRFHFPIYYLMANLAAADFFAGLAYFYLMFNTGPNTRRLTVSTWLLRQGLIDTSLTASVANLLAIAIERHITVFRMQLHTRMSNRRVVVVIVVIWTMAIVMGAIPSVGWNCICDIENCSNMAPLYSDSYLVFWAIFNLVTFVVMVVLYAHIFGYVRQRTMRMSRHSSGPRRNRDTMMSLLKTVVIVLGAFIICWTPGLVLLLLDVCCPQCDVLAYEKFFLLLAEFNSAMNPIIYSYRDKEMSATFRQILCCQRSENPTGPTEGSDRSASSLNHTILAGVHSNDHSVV

IC50: 227 nM
Compound: Cc1noc(-c2ccc(O[C@H]3CCC[C@H](C(=O)O)C3)cc2)c1CNC(=O)OCc1ccc(Cl)cc1
